Laboratory results: patent US7279172B2, “Treatment of autoimmune conditions with copolymer 1 and related copolymers” (priority 1998, dated 2007)
“Also recorded” adds a separate entry of the source.

Assays:
mouse spleen macrophages = experiment: Binding of biotinylated polypeptides to living antigen presenting cells (FACS), mouse; conditions: 50 μg biotinylated polypeptide, 37° C. for 20 hr
[1] = test system: human EBV transformed B-cell line; experiment: Binding of biotinylated polypeptides to living antigen presenting cells (FACS), human; conditions: 50 μg biotinylated polypeptide, 37° C. for 20 hr; DR7,w11 haplotype
[2] = test system: T cells specific for the MBP 84-102 antigen; experiment: Inhibition of MBP-induced T cell proliferation; format: cell-based, mouse, human
[3] = test system: experimental allergic encephalomyelitis (EAE); experiment: EAE suppression by injection with incomplete adjuvant; format: in vivo, (SJL/J×BALB/c)FI mice
mice = experiment: Toxicity test in mice (i.v. injection, 48 hour observation); format: in vivo
Protocol: Three batches of copolymer-1 having an average molecular weight of 7.3 and 8.4 KDa (less than 2.5% copolymer-1 species over 40KDa) and 22KDa (more than 5% copolymer-1 species over 40KDa) were subjected to the toxicity test described below. Five mice were used in each experimental group.
Copolymer-1 is dissolved in distilled water to yield a solution of 2 mg/ml of the active ingredient. Each mouse is injected with 0.5 ml of the test solution into the lateral tail vein. […] Observations were recorded 10 minutes, 24 hours and 48 hours post-injection. If, at the end of 48 hours, all the animals were alive and no adverse signs had been observed, then the batch is designated “non-toxic”. If, however, one or more of the mice had died or had shown adverse signs, then the batch is designated “toxic”.

[4] = test system: experimental allergic encephalomyelitis (EAE); experiment: EAE suppression by oral administration; conditions: Lewis rats fed 5 mg/kg; mean maximal score for the entire group, 0-5 scale
[5] = test system: Rat Basophilic Leukemia cells (RBL-2Ho); experiment: In vitro Rat Basophilic Leukemia cell degranulation test ([3H]-serotonin release); format: cell-based; conditions: 100 μg
Text: Histamine (or serotonin) release from basophile is an in vitro model for immediate hypersensitivity. The Rat Basophilic Leukemia cell line, RBL-2Ho, is uniform and easy to maintain in culture but is a highly sensitive and reproducible system for testing for degranulation. E. L. Basumian, et al., 11 EUR. J. IMMUNOL. 317 (1981). The physiological stimulus for histamine release involves binding of the antigen to membrane-bound IgE molecules, which triggers an intricate biochemical cascade. Degranulation is induced by non-IgE-mediated stimuli, including various peptides and synthetic polymers, e.g. polylysine. R. P. Siraganian, TRENDS IN PHARM[…] 432 (October 1983). The RBL degranulation test is, therefore, used to screen out those batches of COP-1 which evoke substantial degranulation and thus might elicit undesirable local and/or systemic side effects.
Rat Basophilic Leukemia cells (RBL-2Ho), are loaded with [H^3]-serotonin, followed by incubation with 100 μg of the COP-1 to be tested. Batches of COP-1 which induce non-specific degranulation, release [H^3]-serotonin into the medium. The radioactivity in the medium is counted by a scintillation counter and the total radiolabeled serotonin incorporated into the cells is determined in the pelleted cells. Percent degranulation is calculated as the percentage of serotonin released out of the total incorporated.

HLA-DR4 [6] = biological target: T1, HLA-DR4 (Homo sapiens, UniProt P01903+P01911, A100K/A169T/F76Y/I96L/K127E/L162R/M171V/N62H/P40V/Q125Y/R42H/S133A/S149N/S66Y/V115G/V209L/W38E); experiment: Competitive inhibition of biotinylated Copolymer 1 binding to HLA-DR4
WCB AB line = experiment: IL-2 secretion from WCB AB line; conditions: for % Inhibition of IL-2 secretion: 2μM p259
HLA-DR1 [7] = biological target: T2, HLA-DR1 (Homo sapiens, UniProt P01903+P01911, A100R/D57E/F55L/F60I/F76Y/I96L/L162R/M171V/P40L/Q125E/R42F/V115G/Y59C); experiment: Binding of biotinylated polypeptides to purified HLA-DR1
HLA-DR2 [8] = biological target: T3, HLA-DR2 (Homo sapiens, UniProt P01903+P01911); experiment: Competitive inhibition of biotinylated Copolymer 1 binding to HLA-DR2; conditions: vs 1.5 μM biotinylated Copolymer 1, pH 5.0, 40 hr 37° C.
HLA-DR1 [9] = biological target: T2, HLA-DR1; experiment: Competitive inhibition of biotinylated Copolymer 1 binding to HLA-DR1
HLA-DR2 [10] = biological target: T3, HLA-DR2; experiment: Binding of biotinylated polypeptides to purified HLA-DR2
HLA-DR4 [11] = biological target: T1, HLA-DR4; experiment: Binding of biotinylated polypeptides to purified HLA-DR4
[12] = mice, 10 mg/mouse subcutaneously in ICFA, EAE induced 3 weeks later
[13] = vs 1.5 μM biotinylated Copolymer 1, pH 5.0, 40 hr 37° C.

## Copolymer 1 [reference compound]
Mouse spleen macrophages
  % Binding: 85%
  MFI (Mean Fluorescence Intensity): 493
[1]
  % Binding: 96%
  MFI (Mean Fluorescence Intensity): 727
[2]; polypeptide added with stimulating MBP antigen
  inhibition of proliferation of T cells exposed to MBP 84-102 antigen (in words): significantly inhibited the proliferation
[2]; polypeptide as antigen
  stimulation of proliferation of T cells specific for the 84-102 peptide of MBP (in words): did not stimulate proliferation
[3]; injection in ICFA prior to induction of EAE
  EAE suppression (in words): greatest EAE suppression
[3]; [12]
  Incidence: 2/11
  Suppression % Incidence: 82.0%
  Suppression % MMS: 89.0%
[3]; mice, 10 mg/mouse subcutaneously in ICFA, EAE induced 3 weeks later, 0-5 scale
  MMS (Mean Maximal Score): 0.45
mice; Copolymer 1 batch of 7.3 KDa average molecular weight
  batch designation toxic / non-toxic: non-toxic
mice; Copolymer 1 batch of 8.4 KDa average molecular weight
  batch designation toxic / non-toxic: non-toxic
mice; Copolymer 1 batch of 22 kDa average molecular weight
  batch designation toxic / non-toxic: toxic
mice; Copolymer 1 batch of 22 kDa average molecular weight, 0.5 ml of 2 mg/ml into lateral tail vein, five mice
  mice died after 48 hours: Three of five
[4]
  MMS ± SD: 0.78 ± 0.45
[5]; Copolymer 1 batch Average M.W. 6,250, <2.5% species over 40 KDa
  % Serotonin Release: 12.4%
[5]; Copolymer 1 batch Average M.W. 7,300, <2.5% species over 40 KDa
  % Serotonin Release: 21.0%
[5]; Copolymer 1 batch Average M.W. 13,000, >5% species over 40 KDa
  % Serotonin Release: 66.9%
[5]; Copolymer 1 batch Average M.W. 14,500, >5% species over 40 KDa
  % Serotonin Release: 67.8%
HLA-DR4 [6]; unlabeled inhibitor
  inhibition of binding of biotinylated Copolymer 1 to HLA-DR4 (in words): efficiently inhibited
HLA-DR4 [6]; [13]
  IC50: 10.8 µM
WCB AB line; Cop1 20 μM
  % Inhibition of IL-2 secretion: 73%
WCB AB line; Cop1 60 μM
  % Inhibition of IL-2 secretion: 88%
WCB AB line; Cop1 100 μM
  % Inhibition of IL-2 secretion: about 91%
WCB AB line; Cop1 100 μM, listed as Cop1
  % Inhibition of IL-2 secretion: 91%
WCB AB line; Copolymer 1 incubated with the p259 peptide
  inhibition of p259-induced T cell secretion of IL-2 (in words): inhibited in a dose-related fashion
HLA-DR1 [7]; detergent-soluble HLA-DR1
  binding to HLA-DR1, comparison / order of binding capacity (in words): better than that of GAL, TGA or GTL; also recorded: Copolymer 1>TAL>GTL>TGA>>GAL
HLA-DR1 [7]; read-out: Kd DR1, detergent-soluble HLA-DR1, pH 5.0, 40 hr 37° C., from slope of double reciprocal plot
  Kd: 0.074 µM
HLA-DR2 [8]
  IC50: 10.1 µM
HLA-DR1 [9]; unlabeled inhibitor
  inhibition of binding of biotinylated Copolymer 1 to HLA-DR1 (in words): efficiently inhibited
HLA-DR1 [9]; [13]
  IC50: 8.8 µM
HLA-DR2 [10]; detergent-soluble HLA-DR2
  binding to HLA-DR2, comparison / order of binding capacity (in words): bound better than the other polypeptides; also recorded: Copolymer 1>GTL>TAL>GAL>TGA
HLA-DR2 [10]; read-out: Kd DR2, detergent-soluble HLA-DR2, pH 5.0, 40 hr 37° C., from slope of double reciprocal plot
  Kd: 0.082 µM
HLA-DR4 [11]; detergent-soluble HLA-DR4
  binding to HLA-DR4, comparison / order of binding capacity (in words): better than that of GAL, TGA or GTL; also recorded: TAL>Copolymer 1>>TGA>GTL>GAL
HLA-DR4 [11]; read-out: Kd DR4, detergent-soluble HLA-DR4, pH 5.0, 40 hr 37° C., from slope of double reciprocal plot
  Kd: 0.015 µM
